The text below walks through data of patent publication EP0123485A1, “Colon-specific prodrug, the preparation and uses thereof” (priority 1983, dated 1984).

Where two headings read alike, the source gives them in different places.

For orientation: Km means the substrate concentration at which the rate is half of its maximum. Usually Vmax stands for the top rate of the reaction or transport when substrate is in excess.

A short description of data set [1]: Recovery of steroid glycoside and free steroid from intestinal contents and tissues after intragastric administration. Format: in vivo, Sprague-Dawley rats. As to conditions: for recovery at 4 h: po. The procedure:
Male, Sprague-Dawley rats (ca 250 g) were maintained on laboratory rat chow and water ad lib. These rats were fasted overnight (16 hr.) prior to administration of glucoside or free steroid. Water bottles were removed from the cages at least 30 min prior to drug administration. Prednisolone glucoside, 2, (7.5 mg) or dexamethasone glucoside, 1, (7.5 mg) was administered by gastric intubation as a solution (0.5 mL) of water/95% ethanol (3:1). Prednisolone, 4, (5.25 mg) or dexamethasone, 3, (5.1 mg) was administered as a solution (0.5 mL) of water/95% ethanol (1:1). After the appropriate interval of time -3, 4, 5 or 6 hr.- the animals were sacrificed by carbon dioxide anesthesia followed by thoractomy. The small intestine and cecum were removed and cut into segments. Contents were separated from the tissues by rinsing the segments with cold, 0.9% saline (5.0 mL). The contents were immediately diluted to 30 mL with methanol. The tissues were suspended in 0.01 M KH2P04 (5.0 mL). Then an internal standard, either prednisolone, 4, or dexamethasone, 3, depending on the experimental steroid, was added to all the samples. Both the contents and tissues were then homogenized with a Polytron Homogenizer (Brinkman Inst. Co.) at med. speed for 1-2 min. The contents were then diluted to 40 mL total volume with methanol. The tissues were diluted to 25 mL total volume with methanol. All the samples were centrifuged (5,000 g, 15 min) and then the supernatant solutions were passed through membrane filters (0.45 micrometers, Versapor 800). The samples (1.4 mL) were then diluted with 0.01 M KH2PO4 (0.6 mL) and 20 microliters of the resulting solution injected directly onto the HPLC column for analysis.

The subject of data set [2] is beta-glucosidase (EC 3.2.1.21, from almonds). Nature of the data set: Hydrolysis by commercial beta-glucosidase. Format: biochemical. The following applies: 37 C, acetate buffer pH 5.0. The procedure:
Prednisolone glucoside, 2, (5.0 mg) or dexamethasone glucoside, 1, (5.0 mg) was incubated at 37 °C in an […] acetate buffer, pH 5.0 (10.0 mL) with beta-glucosidase (EC 3.2.1.21, from almonds, one unit liberates 1.0 micromole of glucose from salicin per min at pH 5.0 at 370C). Prednisolone glucoside, 2, and dexamethasone glucoside, 1, were treated with 50 and 500 units of enzyme, respectively. At various times, aliquots (0.1 mL) were removed and quenched with methanol (9.9 mL).

Data set [3] can be described thus: Incubation with homogenized rat feces. It counts as in vitro ADME. The following applies: pH 7.5. The procedure:
Glucosides 1 and 2 (5.0 mg) were also incubated at 37 °C with homogenized rat feces (0.5 g/10 milliliters 0.01 M phosphate buffer, pH 7.5). The feces were obtained from rats maintained on a high cellulose diet. […] Aliquots (0.2 milliliters) were removed and quenched with MeOH (3.66 milliliters). After centrifugation (5,000g, 10 min), the samples were passed through membrane filters (0.45 micrometer pore, Versapor 450, Gelman Sciences, Inc.). They were then diluted (1:1) with 0.01 M KH2PO4. Twenty microliters of the resulting solution were injected directly onto the HPLC column for analysis.

The nature of data set [4]: KM(app) and Vmax determinations (Eadie-Hofstee plots). Format: in vitro ADME, rat. The following applies: prodrug 0.5-48 micromolar, 0.8 mL cecal homogenate, 15 min, 37 C; release of free steroid by HPLC; listed as glucoside 2. The procedure: KM(app) and VMax Determinations. The KM(app)-Vmax for the hydrolysis of p-NP-glc and p-NP-gal were determined using pooled cecal homogenates (200 mL) as described above. A range of substrate (56-1000 micromolar; final volume 2.25 mL) concentrations, spanning their apparent KM, was used for each reaction. The amount of cecal homogenate used was 0.04 mL. Velocities were obtained, in duplicate, at 37 °C in a shaking water bath and the reaction stopped by addition of 0.2 N NaOH (0.25 mL) after 15 min. Release of p-nitrophenol was measured spectrophotometrically at 403 nm. Eadie-Hofstee plots were used to determine the KM(app) (micromolar) and Vmax (micromolar/min/g) of both reactions. The wet weight (g), measured immediately after removal and pooling, was used throughout.
Again, cecal contents from four rats were pooled, weighed, diluted (100 mL, 0.01 M phosphate buffer, pH 7.0) and homogenized. A range of substrate concentrations (0.5-48 micromolar, final volume 2.5 mL) spanning the apparent KM, was used for each reaction. The amount of cecal homogenate used was 0.8 mL. Reactions were run, in duplicate, at 37°C in a shaking water bath. After 15 min, the reactions were stopped by removing aliquots (0.3 mL) and quenching them with MeOH (4.7 mL). […] Again, Eadie-Hofstee plots were used to determine the KM(app) and VMax.

Data set [5] can be described thus: Rate of hydrolysis in homogenized cecal contents. As to conditions: cecal contents; 1.0 mM prodrug, 37 C; release of free steroid by HPLC.
Description: (§1) (The entire small intestine was divided into two, equal length segments to give PSI and DSI.) Gastrointestinal contents were obtained from male, Sprague-Dawley rats (300-400 g) which had been maintained on a stock diet (Purina rat chow) and water ad libitum. The intestinal contents of each section were pooled from four animals for each assay. […] Following removal, the contents were quickly weighed, then diluted to 100 milliliters (stomach, PSI, and DSI) or 200 milliliters (cecum) with cold 0.01 M phosphate buffer, pH 7.0. […] Homogenates were then stored on ice (ca 30 min). […] The reaction was run at 37 °C in a shaking water bath. The reaction was stopped after 10, 20, or 30 min by addition of 0.2 N NaOH (0.25 milliliters).
(§2) Stomach and PSI contents were diluted to 50 mL with 0.01 M phosphate buffer, pH 7.0, DSI contents to 25 mL, and cecal contents to 200 mL, prior to homogenization. The homogenates (2.1 mL of stomach, PSI, and DSI and 1.7 mL of cecum) were added to the appropriate substrate solution (0.01 M phosphate buffer, pH 7.0) to give 1.0 mM substrate in a total volume of 2.5 mL. At various times up to 30 min, aliquots (0.3 mL) were removed and quenched with MeOH (4.7 mL). After centrifugation (5,000 g, 10 min), the samples were diluted (1:1) with 0.01 M KH2PO4 and 20 microliters of the resulting solution was injected directly onto the HPLC column for analysis.
A short description of data set [6]: Rate of hydrolysis in homogenized stomach contents. As to conditions: 1.0 mM prodrug, 37 C, release of free steroid by HPLC.
Data set [7] in a line: Rate of hydrolysis in homogenized distal small intestine contents. The following applies: DSI contents; 1.0 mM prodrug, 37 C; release of free steroid by HPLC.
Description: as §1, §2
Data set [8] is described as follows: Rate of hydrolysis in homogenized proximal small intestine contents. The following applies: PSI contents; 1.0 mM prodrug, 37 C; release of free steroid by HPLC.

As for `CC12C=CC(=O)C=C1CCC1C2C(O)CC2(C)C1CCC2(O)C(=O)COC1OC(CO)C(O)C(O)C1O` [Compound 2, 11 beta, 17 alpha-Dihydroxy-3, 20-dioxopregna-l, 4-dien-21-yl beta-D-glucopyranoside], the recovery at 4 h in data set [1] (in vivo, rat, 7.5 mg glucoside intragastric, estimated from unhydrolyzed glucoside in lower small intestine at 4 h, read-out: part of an oral dose of glucoside that reached (was delivered to) the cecum) was under 15%; in data set [1] (rat, in vivo, 7.5 mg, 4 h after 7.5 mg glucoside, rat, read-out: administered dose recovered from the lower small intestine contents unhydrolyzed), 14.8%. For the same compound, the “time to reach the colon” value in data set [1] (rat, in vivo) was 4 to 5 h. Also, the “animals in which the administered dose reached the cecum by the time of sacrifice” value in data set [1] (sixteen rats per glucoside, sacrifice at 3-6 h) is recorded as “eight of sixteen animals”. For the same compound, the “relative rate of hydrolysis by commercial beta-glucosidase” value in data set [2] (listed as Glucoside 2) is “several orders of magnitude faster than was glucoside 1”; in data set [2] (listed as glucoside 2), “much more active towards glucoside 2 than towards glucoside 1”. Moreover, in data set [3], the “hydrolysis on incubation with homogenized rat feces” value was “extensive hydrolysis”. Besides, the Km in data set [4] was 4.5 µM. In addition, the Vmax in data set [4] is 2.6 µM/min/g. In addition, the Sp. act. in data set [5] was 265 nmoles/min/g wet weight; in data set [6], 6.8 nmoles/min/g wet weight; in data set [7], 56.8 nmoles/min/g wet weight; in data set [8] it was 12.2 nmoles/min/g wet weight. The Tot. act. in data set [5] was found to be 6.6 µmol/min; in data set [6] it was 0.12 µmol/min; in data set [7] it was 1.0 µmol/min; in data set [8] it was 0.07 µmol/min.
